# According to patent publication US4751302A, “Indazole derivatives” (priority 1982, dated 1988):
# “And” between values parts separate entries of the source, which are not always exact repeats. Equal entries are not always repeated. “Also recorded” adds a separate entry of the source. Where two headings read alike, the source gives them in different places.
# Tests used:
# [1] = tested on: Carrageenin edema in rat's paw; assay: Carrageenin Edema Test in Rat's Paw (anti-inflammatory activity, Table 1); format: in vivo; conditions: 100 mg/kg oral, hydrochloride, rat
# Protocol: An anti-inflammatory activity was measured by orally administering 100 mg/kg of a hydrochloride of the indazole derivative of this invention as set forth in Table 1 to an animal in accordance with the standard method of Carrageenin Edema Test in Rat's Paw described in C. A. Winter et al., Proc. Soc. Exp. Biol. Med., 111, 544 (1962).
# [2] = tested on: Bradykinin inducing edema; assay: Anti-edema test, bradykinin inducing edema (Table 2); format: in vivo, rat; conditions: after 30 minutes
# Protocol: (§1) […] A. Winter et al., NonSteroidal Anti-inflammatory Drugs. As an edema inducing substance, bradykinin, histamine and serotonin were employed. […] Bradykinin inducing edema inhibition and histamine inducing edema inhibition were measured after 30 minutes of the administration, and serotonin inducing edema inhibition was measured after 3 hours of the administration.
# Histamine inducing edema = assay: Anti-edema test, histamine inducing edema (Table 2); format: in vivo, rat; conditions: after 30 minutes
# Protocol: as §1
# Serotonin inducing edema = assay: Anti-edema test, serotonin inducing edema (Table 2); format: in vivo, rat; conditions: after 3 hours
# Protocol: as §1
# acetic acid-writing = assay: Analgesic activity, acetic acid-writing test (Table 3); format: in vivo, animal (rat); standard mouse acetic acid-writing test
# [3] = tested on: carrageenin edema on hind paw; assay: Carrageenin edema inhibition, comparison with 3-amino-5-chloroindazole; format: in vivo, female Wister rats; conditions: oral; for inhibition to the (carrageenin) edema: after 3 hours from the injection of 1% carrageenin
# Protocol: (§2) To female Wister rats weighing 130-150 g nothing was fed for 19 hours. Then, the rats were orally administered the test compound. Sixty minutes later, the pad of a hind paw of the rat was injected with 0.1 ml of 1% carrageenin solution. After edema was formed on the paw, paw volume and body temperature of the rat were measured, and movement of the rat was observed. As a result, both 3-amino-5-chloroindazole and Compound (46) show a strong inhibition to the edema, that is, 65% and 59%, respectively,after 3 hours from the injection.
# [4] = Body temperature / side effects in carrageenin-treated rats; format: in vivo, female Wister rats
# Protocol: as §2
# [5] = Locomotor activity observation in carrageenin-treated rats; format: in vivo, female Wister rats; conditions: oral, carrageenin-injected rats
# Protocol: as §2
# in vivo = conditions: mouse, ip, intraperitoneal, hydrochloride, male ddy mice
# [6] = Superoxide capture by ESR and UV spectra (potassium superoxide / dicyclohexyl-18-crown-6 in acetonitrile); format: biochemical; conditions: for catch of superoxide / one electron acceptance: ESR and UV
# Protocol: As described in Yoshihiko Oyagi, "Superoxide and Medical Science", pp. 120-144, published by Kyoritsu Shuppan, a superoxide is considered to be one of the factors which cause the inflammation.
# According to the description on Transactions of the Faraday Society, 59, 2016-2026 (1963), the UV spectrum of a phenoxy radical is observed at 380-430 nm. When the UV spectrum of a mixture of the 3-amino-5-hydroxyindazole and dicyclohexyl-18-crown-6 is measured in acetonitrile, λmax is observed at 306 nm. If potassium superoxide is added to the mixture, λmax is observed at 403 nm and 426 nm. On the other hand, no absorptions are observed at 350-450 nm when the UV spectra of potassium superoxide and 3-amino-5-hydroxyindazole are measured respectively in the presence of both dicyclohexyl-18-crown-6 and acetonitrile.
# gastric ulcer = format: in vivo, Male donryu rats
# Protocol: The test compound was suspended in 1% HCO-60 (trade name for polyoxyethylene hydrogenated castor oil; a product of Nikko Chemical Co., Ltd., Japan) at the concentration of 10 mg/ml. Male donryu rats weighing 150-160 g were orally administered 100 mg/kg of the test compound. The occurrence of gastric ulcer was examined 24 hours after the administration.
# It is well known that the single use of acidic non-steroidal anti-inflammatory drugs causes a side effect in digestive tract ulcers such as gastric ulcer. The inventors found, however, that the side effect could be suppressed if the acidic non-steroidal anti-inflammatory drugs were used in combination with the indazole derivatives or pharmaceutically acceptable salts thereof of this invention. For example, gastric ulcer was caused by a single administration of 10 mg/kg of indomethacin in an ulcer index of 10.2 mm, and in an occurrence frequency of 6/6 (Ulcer generation animal number/Total animal number).
# [7] = potassium superoxide, dicyclohexyl-18-crown-6, acetonitrile
# [8] = 100 mg/kg Compound (126) together with 10 mg/kg indomethacin
compound,measurement,setting,value
"c1ccc2c(NCCCN3CCOCC3)n[nH]c2c1 [(152), 3-(3-Morpholinopropylamino)indazole]",inhibition in vivo at 100 mg/kg,[1],51%
same,Bradykinin inducing edema Inhibition,[2]; 100 mg/kg oral,37%
same,Histamine inducing edema Inhibition,Histamine inducing edema; 100 mg/kg oral,20.7%
same,Serotonin inducing edema Inhibition,Serotonin inducing edema; 100 mg/kg oral,42.9%
same,"Inhibition (acetic acid-writing, analgesic activity)",acetic acid-writing; 100 mg/kg oral,57%
"Nc1n[nH]c2ccc(Cl)cc12 [3-amino-5-chloroindazole, reference compound]",inhibition to the (carrageenin) edema,[3],65%
same,decrease of body temperature,"[4]; oral, carrageenin-injected rats",3-4 °C
same,depression of locomotor activity,[5],remarkable depression of locomotor activity
"CCN(CC)CCCNc1n[nH]c2ccc(Cl)cc12 [(46), 3-(3-Diethylaminopropylamino)-5-chloroindazole]",inhibition in vivo at 100 mg/kg,[1],59%
same,Bradykinin inducing edema Inhibition,[2]; 100 mg/kg oral,14.7%
same,Histamine inducing edema Inhibition,Histamine inducing edema; 100 mg/kg oral,31.0%
same,Serotonin inducing edema Inhibition,Serotonin inducing edema; 100 mg/kg oral,73.4%
same,Carrageenin edema inhibition activity relative to 3-amino-5-chloroindazole,[3],the same Carrageenin edema inhibition activity as 3-amino-5-chloroindazole
same,inhibition to the (carrageenin) edema,[3],59%
same,"side effects (decrease of body temperature, depression of locomotor activity), words",[4]; relative to 3-amino-5-chloroindazole,can relieve the side effects of 3-amino-5-chloroindazole
same,"Inhibition (acetic acid-writing, analgesic activity)",acetic acid-writing; 100 mg/kg oral,52%
same,LD50,in vivo,211 mg/kg
"COc1ccc2c(c1)c(CC(=O)O)c(C)n2C(=O)c1ccc(Cl)cc1 [Compound C-4, Indomethacin]",Bradykinin inducing edema Inhibition,"[2]; Dose: 10 mg/kg, oral",0.4%
same,Histamine inducing edema Inhibition,"Histamine inducing edema; Dose: 10 mg/kg, oral",0%
same,Serotonin inducing edema Inhibition,"Serotonin inducing edema; Dose: 10 mg/kg, oral",21.4%
same,"Inhibition (acetic acid-writing, analgesic activity)","acetic acid-writing; Dose: 20 mg/kg, oral",50%
"CCCCC1C(=O)N(c2ccccc2)N(c2ccccc2)C1=O [Compound C-5, 3,5-dioxo-1,2-diphenyl-4-n-butylpyrazolidine]",Bradykinin inducing edema Inhibition,[2]; 100 mg/kg oral,2.9%
same,Histamine inducing edema Inhibition,Histamine inducing edema; 100 mg/kg oral,0%
same,Serotonin inducing edema Inhibition,Serotonin inducing edema; 100 mg/kg oral,2.8%
same,"Inhibition (acetic acid-writing, analgesic activity)",acetic acid-writing; 100 mg/kg oral,9%
"Nc1n[nH]c2ccc(O)cc12 [(162), 3-Amino-5-hydroxyindazole]",inhibition in vivo at 100 mg/kg,[1],45%
same,catch of superoxide / one electron acceptance,[6]; [7],can catch the superoxide; also recorded: accepts one electron from the superoxide
same,LD50,in vivo,243 mg/kg
"CCN(CC)CCCn1nc(NCCCN2CCCCC2)c2cc(O)ccc21 [(126), 1-(3-Diethylaminopropyl)-3-(3-piperidinopropylamino)-5-hydroxyindazole]",inhibition in vivo at 100 mg/kg,[1],28%
same,occurrence frequency of ulcer,gastric ulcer; [8],the occurrence frequency was not changed
same,ulcer index,gastric ulcer; [8],5.8 mm
same,occurrence of gastric ulcer,"gastric ulcer; rat, in vivo",gastric ulcer did not occur
same,LD50,in vivo,310 mg/kg
"Nc1n[nH]c2ccc(O)cc12 [3-amino-5-hydroxyindazole, 3-Amino-5-hydroxyindazole]",ESR signals on addition to superoxide mixture (phenoxy radical),[6]; [7],six superfine signals are observed
same,catch of superoxide / one electron acceptance,[6]; [7],a phenoxy radical is produced
same,UV λmax after adding potassium superoxide (phenoxy radical),[6]; with potassium superoxide and dicyclohexyl-18-crown-6 in acetonitrile,403 nm and 426 nm
"COc1ccc2c(c1)c(CC(=O)O)c(C)n2C(=O)c1ccc(Cl)cc1 [indomethacin, 1-(p-chlorobenzoyl)-5-methoxy-2-methyl-indole-3-acetic acid, reference compound]",occurrence frequency (Ulcer generation animal number/Total animal number),"gastric ulcer; rat, in vivo, 10 mg/kg",6/6
same,ulcer index,"gastric ulcer; rat, in vivo, 10 mg/kg",10.2 mm
"CC(C(=O)O)c1cccc(C(=O)c2ccccc2)c1 (stereo not drawn) [Compound C-6, 3-benzoylhydratropic acid]",Bradykinin inducing edema Inhibition,"[2]; Dose: 10 mg/kg, oral",1.6%
same,Histamine inducing edema Inhibition,"Histamine inducing edema; Dose: 10 mg/kg, oral",2.9%
same,Serotonin inducing edema Inhibition,"Serotonin inducing edema; Dose: 10 mg/kg, oral",5.2%
"CC(CCNc1n[nH]c2ccc(O)cc12)N1CCCCC1 (stereo not drawn) [(79), 3-(3-Piperidinobutylamino)-5-hydroxyindazole]",inhibition in vivo at 100 mg/kg,[1],46%
same,LD50,in vivo,146 mg/kg
"CC(CCn1nc(N)c2cc(Cl)ccc21)N(C)C (stereo not drawn) [(9), 1-(3-Dimethylaminobutyl)-3-amino-5-chloroindazole]",inhibition in vivo at 100 mg/kg,[1],37%
same,LD50,in vivo,113 mg/kg
"CC(C)CC(CCNc1nn(CCC(C)N2CCCCC2)c2ccc(O)cc12)N1CCCCC1 (stereo not drawn) [(136), 1-(3-Piperidinobutyl)-3-(3-piperidino-5-methylhexylamino)-5-hydroxyindazole]",inhibition in vivo at 100 mg/kg,[1],21%
same,LD50,in vivo,241 mg/kg
"CCN(CC)CCCNc1n[nH]c2ccc(OC)cc12 [(50), 3-(3-Diethylaminopropylamino)-5-methoxyindazole]",inhibition in vivo at 100 mg/kg,[1],52%
same,LD50,in vivo,200 mg/kg
"CCN(CC)CCCn1nc(N)c2cccc(I)c21 [(28), 1-(3-Diethylaminopropyl)-3-amino-7-iodoindazole]",inhibition in vivo at 100 mg/kg,[1],54%
same,LD50,in vivo,103 mg/kg
